In ChEMBL document CHEMBL3400114, “The design, synthesis and biological evaluation of conformationally restricted 4-substituted-2,6-dimethylfuro[2,3-d]pyrimidines as multi-targeted receptor tyrosine kinase and microtubule inhibitors as potential antitumor agents” (Bioorg Med Chem, 2015):

Columns and labels:
A-431 = experiment: Antiproliferative activity against human A431 cells after 48 hrs by sulforhodamine B assay; type: functional, cell-based; conditions: A-431, 48 h
[1] = Induction of microtubule depolymerization in rat A10 cells after 18 hrs by indirect immunofluorescence assay; type: cell-based
[2] = Antiproliferative activity against human SKOV3 cells overexpressing wild type beta3 tubulin after 48 hrs by sulforhodamine B assay; type: functional, cell-based; conditions: SK-OV-3, 48 h
[3] = Antiproliferative activity against human SKOV3-MDR1-M6/6 cells overexpressing wild type beta3 tubulin after 48 hrs by sulforhodamine B assay; type: functional, cell-based; conditions: SKOV3-MDR1-M6/6, 48 h
MDA-MB-435 [4] = experiment: Antiproliferative activity against human MDA-MB-435 cells after 48 hrs by sulforhodamine B assay; type: functional, cell-based; conditions: MDA-MB-435, 48 h
Tubulin = Tubulin (Bos taurus, UniProt Q6B856+Q862L2+Q862F3); experiment: Inhibition of bovine brain tubulin assembly
[5] = Antiangiogenic activity in VEGF-165 and bFGF-stimulated chicken embryo chorioallantoic membrane assessed as inhibition of blood vessel formation after 40 hrs by microscopy; type: functional, tissue-based, Gallus gallus
SW-620 = experiment: Growth inhibition of human SW620 cells after 48 hrs by sulforhodamine B assay; type: functional; conditions: SW-620, 48 h
HeLa [6] = experiment: Resistance ratio of IC50 for human HeLa cells overexpressing wild type beta3 tubulin to IC50 for human HeLa cells; type: functional
[7] = Growth inhibition of human SF295 cells after 48 hrs by sulforhodamine B assay; type: functional; conditions: SF-295, 48 h
SNB-19 = experiment: Growth inhibition of human SNB19 cells after 48 hrs by sulforhodamine B assay; type: functional; conditions: SNB-19, 48 h
HT-29 = experiment: Growth inhibition of human HT-29 cells after 48 hrs by sulforhodamine B assay; type: functional; conditions: HT-29, 48 h
NCI-H522 = experiment: Growth inhibition of human NCI-H522 cells after 48 hrs by sulforhodamine B assay; type: functional; conditions: NCI-H522, 48 h
[8] = Growth inhibition of human OVCAR4 cells after 48 hrs by sulforhodamine B assay; type: functional; conditions: OVCAR-4, 48 h
SR = experiment: Growth inhibition of human SR cells after 48 hrs by sulforhodamine B assay; type: functional
K562 = experiment: Growth inhibition of human K562 cells after 48 hrs by sulforhodamine B assay; type: functional; conditions: K562, 48 h
SN12C = experiment: Growth inhibition of human SN12C cells after 48 hrs by sulforhodamine B assay; type: functional
[9] = Growth inhibition of human PC3 cells after 48 hrs by sulforhodamine B assay; type: functional; conditions: PC-3, 48 h
[10] = Growth inhibition of human HCT15 cells after 48 hrs by sulforhodamine B assay; type: functional; conditions: HCT-15, 48 h
[11] = Growth inhibition of human RXF393 cells after 48 hrs by sulforhodamine B assay; type: functional; conditions: RXF 393, 48 h
[12] = Growth inhibition of human EKVX cells after 48 hrs by sulforhodamine B assay; type: functional
NCI-H226 = experiment: Growth inhibition of human NCI-H226 cells after 48 hrs by sulforhodamine B assay; type: functional; conditions: NCI-H226, 48 h
[13] = Ratio of EC50 for microtubule depolymerization in rat A10 cells to IC50 for human MDA-MB-435 cells
[14] = Growth inhibition of human SF539 cells after 48 hrs by sulforhodamine B assay; type: functional; conditions: SF-539, 48 h
[15] = Growth inhibition of human UO31 cells after 48 hrs by sulforhodamine B assay; type: functional; conditions: UO-31, 48 h
[16] = Growth inhibition of human OVCAR8 cells after 48 hrs by sulforhodamine B assay; type: functional; conditions: OVCAR-8, 48 h
[17] = Growth inhibition of human Hs 578T cells after 48 hrs by sulforhodamine B assay; type: functional
SK-MEL-2 = experiment: Growth inhibition of human SK-MEL-2 cells after 48 hrs by sulforhodamine B assay; type: functional; conditions: SK-MEL-2, 48 h
DU-145 = experiment: Growth inhibition of human DU145 cells after 48 hrs by sulforhodamine B assay; type: functional; conditions: DU-145, 48 h
MDA-MB-435 [18] = experiment: Growth inhibition of human MDA-MB-435 cells after 48 hrs by sulforhodamine B assay; type: functional; conditions: MDA-MB-435, 48 h
HOP-62 = experiment: Growth inhibition of human HOP62 cells after 48 hrs by sulforhodamine B assay; type: functional; conditions: HOP-62, 48 h
SK-OV-3 [19] = experiment: Resistance ratio of IC50 for human SKOV3-MDR1-M6/6 cells to IC50 for human SKOV3 cells; type: functional
[20] = Growth inhibition of human LOXIMVI cells after 48 hrs by sulforhodamine B assay; type: functional; conditions: LOX IMVI
NCI-H23 = experiment: Growth inhibition of human NCI-H23 cells after 48 hrs by sulforhodamine B assay; type: functional; conditions: NCI-H23, 48 h
[21] = Growth inhibition of human OVCAR3 cells after 48 hrs by sulforhodamine B assay; type: functional; conditions: OVCAR-3, 48 h
SNB-75 = experiment: Growth inhibition of human SNB75 cells after 48 hrs by sulforhodamine B assay; type: functional; conditions: SNB-75, 48 h
[22] = Growth inhibition of human HCC2998 cells after 48 hrs by sulforhodamine B assay; type: functional; conditions: HCC 2998, 48 h
CAKI-1 = experiment: Growth inhibition of human Caki1 cells after 48 hrs by sulforhodamine B assay; type: functional; conditions: CAKI-1, 48 h
[23] = Growth inhibition of human HOP92 cells after 48 hrs by sulforhodamine B assay; type: functional; conditions: HOP-92, 48 h
TK-10 = experiment: Growth inhibition of human TK10 cells after 48 hrs by sulforhodamine B assay; type: functional; conditions: TK-10, 48 h
[24] = Growth inhibition of human UACC62 cells after 48 hrs by sulforhodamine B assay; type: functional; conditions: UACC-62, 48 h
[25] = Growth inhibition of human BT549 cells after 48 hrs by sulforhodamine B assay; type: functional; conditions: BT-549, 48 h
CCRF-CEM = experiment: Growth inhibition of human CCRF-CEM cells after 48 hrs by sulforhodamine B assay; type: functional
MDA-MB-468 = experiment: Growth inhibition of human MDA-MB-468 cells after 48 hrs by sulforhodamine B assay; type: functional; conditions: MDA-MB-468, 48 h
U-251 = experiment: Growth inhibition of human U251 cells after 48 hrs by sulforhodamine B assay; type: functional; conditions: U-251, 48 h
MDA-MB-231 = experiment: Growth inhibition of human MDA-MB-231 cells after 48 hrs by sulforhodamine B assay; type: functional; conditions: MDA-MB-231, 48 h
NCI-H460 = experiment: Growth inhibition of human NCI-H460 cells after 48 hrs by sulforhodamine B assay; type: functional; conditions: NCI-H460, 48 h
[26] = Growth inhibition of human HCT116 cells after 48 hrs by sulforhodamine B assay; type: functional; conditions: HCT-116, 48 h
KM12 = experiment: Growth inhibition of human KM12 cells after 48 hrs by sulforhodamine B assay; type: functional; conditions: KM12, 48 h
M14 = experiment: Growth inhibition of human M14 cells after 48 hrs by sulforhodamine B assay; type: functional; conditions: M14, 48 h
[27] = Growth inhibition of human MOLT4 cells after 48 hrs by sulforhodamine B assay; type: functional; conditions: MOLT-4, 48 h
SK-MEL-5 = experiment: Growth inhibition of human SK-MEL-5 cells after 48 hrs by sulforhodamine B assay; type: functional; conditions: SK-MEL-5, 48 h
MCF7 = experiment: Growth inhibition of human MCF7 cells after 48 hrs by sulforhodamine B assay; type: functional; conditions: MCF7, 48 h
HL-60(TB) = experiment: Growth inhibition of human HL-60(TB) cells after 48 hrs by sulforhodamine B assay; type: functional; conditions: HL-60, 48 h
HeLa [28] = experiment: Antiproliferative activity against human HeLa cells overexpressing wild type beta3 tubulin after 48 hrs by sulforhodamine B assay; type: functional, cell-based
ACHN = experiment: Growth inhibition of human ACHN cells after 48 hrs by sulforhodamine B assay; type: functional
786-0 = experiment: Growth inhibition of human 786-0 cells after 48 hrs by sulforhodamine B assay; type: functional; conditions: 786-0, 48 h
IGROV-1 = experiment: Growth inhibition of human IGROV1 cells after 48 hrs by sulforhodamine B assay; type: functional; conditions: IGROV-1, 48 h
SK-OV-3 [29] = experiment: Growth inhibition of human SKOV3 cells after 48 hrs by sulforhodamine B assay; type: functional; conditions: SK-OV-3, 48 h
[30] = Growth inhibition of human COLO205 cells after 48 hrs by sulforhodamine B assay; type: functional; conditions: COLO 205, 48 h
[31] = Growth inhibition of human OVCAR5 cells after 48 hrs by sulforhodamine B assay; type: functional; conditions: OVCAR-5, 48 h
[32] = Growth inhibition of human […] cells after 48 hrs by sulforhodamine B assay; type: functional
NCI/ADR-RES = experiment: Growth inhibition of human NCI/ADR-RES cells after 48 hrs by sulforhodamine B assay; type: functional
SF-268 = experiment: Growth inhibition of human SF268 cells after 48 hrs by sulforhodamine B assay; type: functional; conditions: SF-268, 48 h
[33] = target: Platelet-derived growth factor receptor beta (Homo sapiens, UniProt P09619); experiment: Inhibition of PDGFR-beta in human U251 cells compound pretreated for 60 min before PDGF-BB stimulation for 10 mins by phosphotyrosine ELISA cytoblot method; type: cell-based, U-251
[34] = target: Vascular endothelial growth factor receptor 2 (Homo sapiens, UniProt P35968); type: cell-based, U-251
[35] = target: Epidermal growth factor receptor (Homo sapiens, UniProt P00533); type: cell-based, A-431
Epidermal growth factor receptor, sequence (P00533 whole entry): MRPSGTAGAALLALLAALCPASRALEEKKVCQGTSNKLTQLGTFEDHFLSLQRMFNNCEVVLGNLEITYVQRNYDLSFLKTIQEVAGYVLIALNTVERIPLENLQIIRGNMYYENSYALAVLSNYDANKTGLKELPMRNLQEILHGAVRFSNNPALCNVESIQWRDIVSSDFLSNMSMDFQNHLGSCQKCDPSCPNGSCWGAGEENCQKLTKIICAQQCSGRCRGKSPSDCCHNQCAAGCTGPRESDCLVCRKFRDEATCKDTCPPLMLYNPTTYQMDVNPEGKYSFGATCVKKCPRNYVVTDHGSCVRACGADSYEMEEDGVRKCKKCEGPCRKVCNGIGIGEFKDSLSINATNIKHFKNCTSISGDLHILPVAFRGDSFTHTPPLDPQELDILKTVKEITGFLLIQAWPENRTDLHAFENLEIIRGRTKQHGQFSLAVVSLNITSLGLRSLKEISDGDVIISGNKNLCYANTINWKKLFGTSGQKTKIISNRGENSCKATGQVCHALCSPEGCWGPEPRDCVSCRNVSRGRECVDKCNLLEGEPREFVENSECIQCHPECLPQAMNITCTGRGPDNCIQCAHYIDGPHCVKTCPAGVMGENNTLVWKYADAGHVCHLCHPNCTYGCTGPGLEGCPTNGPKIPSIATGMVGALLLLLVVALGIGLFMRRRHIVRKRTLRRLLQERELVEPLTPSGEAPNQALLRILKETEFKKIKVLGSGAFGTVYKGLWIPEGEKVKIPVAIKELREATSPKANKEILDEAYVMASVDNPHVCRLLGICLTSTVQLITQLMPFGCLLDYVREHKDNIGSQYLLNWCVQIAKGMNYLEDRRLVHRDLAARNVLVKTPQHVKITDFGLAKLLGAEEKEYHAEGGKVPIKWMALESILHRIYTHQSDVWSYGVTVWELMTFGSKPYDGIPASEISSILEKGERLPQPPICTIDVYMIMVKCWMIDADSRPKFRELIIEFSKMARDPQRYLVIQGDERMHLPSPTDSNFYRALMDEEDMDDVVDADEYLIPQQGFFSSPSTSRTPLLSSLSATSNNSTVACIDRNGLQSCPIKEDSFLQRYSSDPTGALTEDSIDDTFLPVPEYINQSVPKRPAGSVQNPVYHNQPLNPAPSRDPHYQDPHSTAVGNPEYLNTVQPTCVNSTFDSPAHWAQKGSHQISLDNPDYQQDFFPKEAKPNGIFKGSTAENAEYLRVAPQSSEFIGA

Vascular endothelial growth factor receptor 2, sequence (P35968 whole entry): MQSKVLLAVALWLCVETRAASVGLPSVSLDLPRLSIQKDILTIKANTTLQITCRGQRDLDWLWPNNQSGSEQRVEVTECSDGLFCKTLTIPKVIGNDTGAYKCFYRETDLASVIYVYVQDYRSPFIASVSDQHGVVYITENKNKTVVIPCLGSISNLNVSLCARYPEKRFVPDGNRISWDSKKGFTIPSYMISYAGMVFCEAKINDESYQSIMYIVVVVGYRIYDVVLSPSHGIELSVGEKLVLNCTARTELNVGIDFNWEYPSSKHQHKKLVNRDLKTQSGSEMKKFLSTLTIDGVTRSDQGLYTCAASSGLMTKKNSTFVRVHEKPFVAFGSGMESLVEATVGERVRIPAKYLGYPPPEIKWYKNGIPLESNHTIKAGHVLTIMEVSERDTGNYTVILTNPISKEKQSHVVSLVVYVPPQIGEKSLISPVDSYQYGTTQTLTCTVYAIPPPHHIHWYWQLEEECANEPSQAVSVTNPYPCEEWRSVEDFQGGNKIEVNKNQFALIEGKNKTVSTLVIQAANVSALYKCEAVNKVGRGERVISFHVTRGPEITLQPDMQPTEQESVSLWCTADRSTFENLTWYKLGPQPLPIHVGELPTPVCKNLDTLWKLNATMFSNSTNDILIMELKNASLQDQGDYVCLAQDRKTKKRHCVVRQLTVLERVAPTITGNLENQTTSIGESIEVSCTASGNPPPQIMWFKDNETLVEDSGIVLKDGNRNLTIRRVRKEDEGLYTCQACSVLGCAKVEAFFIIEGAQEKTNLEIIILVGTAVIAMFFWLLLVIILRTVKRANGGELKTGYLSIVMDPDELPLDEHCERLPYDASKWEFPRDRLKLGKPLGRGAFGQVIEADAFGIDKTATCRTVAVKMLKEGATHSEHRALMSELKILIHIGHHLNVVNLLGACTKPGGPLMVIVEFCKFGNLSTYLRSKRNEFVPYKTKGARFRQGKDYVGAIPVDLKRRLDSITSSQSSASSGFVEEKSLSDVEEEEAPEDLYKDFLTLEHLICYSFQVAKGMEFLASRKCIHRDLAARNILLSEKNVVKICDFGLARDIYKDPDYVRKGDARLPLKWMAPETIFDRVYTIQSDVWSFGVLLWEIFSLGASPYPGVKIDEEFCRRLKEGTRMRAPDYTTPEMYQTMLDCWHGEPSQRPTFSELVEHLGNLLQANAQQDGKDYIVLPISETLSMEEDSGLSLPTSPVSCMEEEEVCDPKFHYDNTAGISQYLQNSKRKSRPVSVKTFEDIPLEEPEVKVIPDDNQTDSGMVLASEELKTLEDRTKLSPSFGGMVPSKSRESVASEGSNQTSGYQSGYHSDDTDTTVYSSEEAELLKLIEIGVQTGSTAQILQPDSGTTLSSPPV
Platelet-derived growth factor receptor beta, sequence (P09619 whole entry): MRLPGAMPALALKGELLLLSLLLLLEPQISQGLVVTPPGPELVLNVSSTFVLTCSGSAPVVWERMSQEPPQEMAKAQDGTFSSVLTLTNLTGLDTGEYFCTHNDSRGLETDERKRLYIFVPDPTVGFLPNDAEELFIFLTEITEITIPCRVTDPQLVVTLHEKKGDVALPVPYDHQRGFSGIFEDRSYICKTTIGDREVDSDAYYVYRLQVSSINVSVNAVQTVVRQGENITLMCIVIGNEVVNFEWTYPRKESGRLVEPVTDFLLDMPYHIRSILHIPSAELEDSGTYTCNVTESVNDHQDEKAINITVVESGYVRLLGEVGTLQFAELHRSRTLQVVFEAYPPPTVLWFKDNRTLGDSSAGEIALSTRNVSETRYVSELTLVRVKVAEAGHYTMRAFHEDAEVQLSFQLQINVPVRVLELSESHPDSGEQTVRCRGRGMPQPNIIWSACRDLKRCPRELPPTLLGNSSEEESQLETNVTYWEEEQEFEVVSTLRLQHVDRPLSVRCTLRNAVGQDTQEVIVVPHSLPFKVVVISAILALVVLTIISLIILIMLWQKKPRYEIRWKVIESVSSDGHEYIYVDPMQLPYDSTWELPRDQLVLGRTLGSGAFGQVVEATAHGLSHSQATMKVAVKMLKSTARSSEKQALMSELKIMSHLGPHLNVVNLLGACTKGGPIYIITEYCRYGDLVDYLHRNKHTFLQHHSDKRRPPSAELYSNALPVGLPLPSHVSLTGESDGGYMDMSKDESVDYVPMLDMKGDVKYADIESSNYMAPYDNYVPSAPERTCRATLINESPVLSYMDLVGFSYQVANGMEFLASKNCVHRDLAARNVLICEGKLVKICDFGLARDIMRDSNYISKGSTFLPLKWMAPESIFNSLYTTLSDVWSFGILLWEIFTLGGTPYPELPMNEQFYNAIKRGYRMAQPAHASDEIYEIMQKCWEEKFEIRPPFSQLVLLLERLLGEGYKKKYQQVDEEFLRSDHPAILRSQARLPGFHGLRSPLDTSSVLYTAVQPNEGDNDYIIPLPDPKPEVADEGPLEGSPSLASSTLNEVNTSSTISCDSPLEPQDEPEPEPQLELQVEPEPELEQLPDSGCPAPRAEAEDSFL

For `COc1ccc2c(c1)CCN2c1nc(C)nc2oc(C)cc12`, the IC50 (A-431) was 42.2 nM and the EC50 [1] was > 10000 nM.

In the case of `COc1ccc(/C=C\c2cc(OC)c(OC)c(OC)c2)cc1O` [COMBRETASTATIN A4], the EC50 [1] is reported as 9.8 nM, the IC50 [2] is reported as 6.9 nM and the IC50 [3] is reported as 3 nM. For the same compound, the IC50 (MDA-MB-435 [4]) was 5 nM.

`COc1ccc(N(C)c2nc(C)nc3oc(C)cc23)cc1OC` gave an IC50 (A-431) of 9.7 nM.

In the case of `COc1ccc(N(C)c2nc(C)nc3oc(C)cc23)cc1`, the EC50 [1] is reported as 103 nM and the IC50 (Tubulin) is reported as 2400 nM.

In the case of `Cc1nc(N(C)c2ccc3occc3c2)c2cc(C)oc2n1`, the IC50 [5] is reported as 15200 nM, the GI50 (SW-620) is reported as 58.8 nM and the “Ratio IC50” value (HeLa [6]) is reported as 0.8. For the same compound, the GI50 [7] was 41.7 nM, the GI50 (SNB-19) was 93.6 nM and the GI50 (HT-29) was 51.9 nM. For the same compound, the GI50 (NCI-H522) was 29.9 nM, the GI50 [8] was 553 nM and the GI50 (SR) was 62.4 nM. The GI50 (K562) was 40.4 nM, the GI50 (SN12C) was 611 nM and the GI50 [9] was 183 nM. The IC50 (A-431) was 73.2 nM, the GI50 [10] was 51.9 nM and the GI50 [11] was 57.2 nM. The EC50 [1] was 3790 nM, the GI50 [12] was 396 nM and the GI50 (NCI-H226) was 217 nM. For the same compound, the Ratio [13] was 28, the GI50 [14] was 60.9 nM and the GI50 [15] was 278 nM. It also gave a GI50 [16] of 330 nM, a GI50 [17] of 51.7 nM and a GI50 (SK-MEL-2) of 82.4 nM. For the same compound, the GI50 (DU-145) was 198 nM, the GI50 (MDA-MB-435 [18]) was 21.1 nM and the GI50 (HOP-62) was 75.2 nM. The “Ratio IC50” value (SK-OV-3 [19]) was 1.2, the IC50 [2] was 425 nM and the GI50 [20] was 162 nM. For the same compound, the GI50 (NCI-H23) was 206 nM, the GI50 [21] was 30 nM and the GI50 (SNB-75) was 103 nM. For the same compound, the GI50 [22] was 185 nM, the GI50 (CAKI-1) was 57.9 nM and the GI50 [23] was 226 nM. It also gave a GI50 (TK-10) of 382 nM, a GI50 [24] of 57.1 nM and a GI50 [25] of 432 nM. It also gave a GI50 (CCRF-CEM) of 121 nM, a GI50 (MDA-MB-468) of 31.5 nM and a GI50 (U-251) of 84 nM. It also gave a GI50 (MDA-MB-231) of 223 nM, a GI50 (NCI-H460) of 138 nM and a GI50 [26] of 77.1 nM. It also gave a GI50 (KM12) of 58.4 nM, a GI50 (M14) of 47.3 nM and a GI50 [27] of 211 nM. The GI50 (SK-MEL-5) was 50.4 nM, the GI50 (MCF7) was 43.8 nM and the IC50 [3] was 509 nM. It also gave a GI50 (HL-60(TB)) of 41.2 nM, an IC50 (HeLa [28]) of 243 nM and a GI50 (ACHN) of 265 nM. It also gave a GI50 (786-0) of 1040 nM, a GI50 (IGROV-1) of 142 nM and a GI50 (SK-OV-3 [29]) of 98 nM. For the same compound, the GI50 [30] was 139 nM, the IC50 (MDA-MB-435 [4]) was 133 nM and the GI50 [31] was 531 nM. The GI50 [32] was 389 nM, the GI50 (NCI/ADR-RES) was 37.6 nM and the GI50 (SF-268) was 527 nM.

For `CCOc1ccc(N(C)c2nc(C)nc3oc(C)cc23)cc1`, the IC50 (A-431) was 92.9 nM, the IC50 [33] was 132 nM and the IC50 [34] was 121 nM. For the same compound, the IC50 [35] was > 500 nM and the IC50 [3] was 30.8 nM.
